Here are results for four sequences from article PMC2193274 (The Journal of Experimental Medicine, 2000).

Experiment [1] deals with T2 cells expressing Qa-1^b (T237). The class given is cell-based, human. The following applies: for Inhibition of killing of T237 targets by Qa-1^b-Qdm tetramer-positive NK cells: 30 μM peptide overnight and during the 4-h assay, Fig. 6.
The next experiment concerns Dk. The following applies: cited from earlier work.
The next experiment concerns the target Qa-1^b (Mus musculus, UniProt P06339). The class given is binding. The conditions noted are these: competition with biotin-Qdm4C.

Sequence of Qa-1^b (P06339 21-304 limits assumed): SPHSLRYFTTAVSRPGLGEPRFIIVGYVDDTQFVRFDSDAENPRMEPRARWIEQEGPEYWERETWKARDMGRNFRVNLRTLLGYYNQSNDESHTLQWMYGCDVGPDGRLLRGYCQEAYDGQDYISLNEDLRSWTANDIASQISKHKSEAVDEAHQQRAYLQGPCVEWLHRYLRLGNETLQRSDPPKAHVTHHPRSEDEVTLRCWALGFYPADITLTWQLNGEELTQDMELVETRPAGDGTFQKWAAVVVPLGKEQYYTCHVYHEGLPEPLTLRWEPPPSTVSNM
Sequence of Qa-1^b (P61769 21-119 partner): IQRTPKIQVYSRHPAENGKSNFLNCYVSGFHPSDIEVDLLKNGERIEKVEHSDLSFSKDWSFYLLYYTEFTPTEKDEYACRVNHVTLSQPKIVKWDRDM

On to KMAPRTLLL [Qdm P1], for which, in experiment [1], the “Inhibition of killing of T237 targets by Qa-1^b-Qdm tetramer-positive NK cells” value was “Substantial inhibition”.
As for RRLGRTLLL [MT(389–397)], in the experiment with Dk, the “Binding to Dk” value is reported as “high affinity”.
For the sequence AMAPRTLLL [Qdm], in experiment [1], the “Inhibition of lysis of T237 targets by tetramer-negative NK cells” value was “does not inhibit lysis” and the “Inhibition of killing of T237 targets by Qa-1^b-Qdm tetramer-positive NK cells” value is listed as “markedly inhibit killing”.
In the case of AMACRTLLL [Qdm4C], the “Binding affinity for Qa-1 in competition assays compared with Qdm” value on Qa-1^b is recorded as “affinity similar or identical to Qdm”.
